Reference: patent publication US20220313656A1, “NEW CLASS OF ANTIBIOTICS HAVING LOW MIC-VALUES TOWARDS DIFFERENT STRAINS OF BACTERIA” (priority 2019, published 2022)

Assays:
S. aureus CC398 = assay: MIC, serial dilution method (CLSI); type: cell-based, Staphylococcus aureus; details: Staphylococcus aureus, MRSA, 24 h; read-out: MIC
Method: (§1) These inoculums were each in diluted 1:100 in Müller Hinton (MH) broth (Sigma, Copenhagen, Denmark). From the diluted inoculums 100 μl was transferred to each well in a 96-well plate and mixed with the compound to be MIC determined. The plate was incubated for 24 hours at 37° C. (without shaking). The MIC value was determined as the lowest concentration in which no bacterial growth could be visually detected. All MIC determinations were done in duplicates. […] Since all derivatives are new, no control strains (with reference MIC values) were available.

S. aureus USA300 = assay: MIC, serial dilution method (CLSI); type: cell-based, Staphylococcus aureus; details: Staphylococcus aureus, USA300, 24 h; read-out: MIC
Method: as §1

E. faecalis = assay: MIC, serial dilution method (CLSI); type: cell-based, Enterococcus faecalis; details: Enterococcus faecalis, 24 h; read-out: MIC
Method: as §1

E. coli APEC O2 = assay: MIC, serial dilution method (CLSI); type: cell-based, Escherichia coli; details: Escherichia coli, APECO2, 24 h; read-out: MIC
Method: as §1

[1] = test system: Staphylococus pseudintermedius; assay: MIC, serial dilution method (CLSI); type: cell-based, Staphylococcus pseudintermedius; details: Staphylococcus pseudintermedius, 24 h; read-out: MIC
Method: as §1

E. faecium = assay: MIC, serial dilution method (CLSI); type: cell-based, Enterococcus faecium; details: Enterococcus faecium, 24 h; read-out: MIC
Method: as §1

Bacillus cereus = assay: MIC, serial dilution method (CLSI); type: cell-based; details: 24 h, read-out: MIC
Method: as §1

Listeria monocytogenes = assay: MIC, serial dilution method (CLSI); type: cell-based; details: 24 h, read-out: MIC
Method: as §1

Salmonella enteritidis = assay: MIC, serial dilution method (CLSI); type: cell-based; details: Salmonella enterica, ENTERITIDIS, 24 h; read-out: MIC
Method: as §1

Streptococcus equi = assay: MIC, serial dilution method (CLSI); type: cell-based; details: 24 h, read-out: MIC
Method: as §1

IPEC-J2 MDR1 cells = assay: Apical to basolateral transport across IPEC-J2 MDR1 cell monolayers; type: in vitro ADME
Method: To assess the permeability of the compounds, the apical to basolateral flux/permeability of different experimental compounds across monolayers of IPEC-J2 MDR1 cells seeded and cultured on Transwell supports was investigated.
The compounds were dissolved in ultra pure water (MilliQ) to a concentration of 1 mM and further diluted in HBSS supplemented with 0.05% BSA and 10 mM HEPES, pH 7.4 to a final concentration of 10 μM.
For transport experiments, IPEC-J2 cells were seeded onto to permeable supports (T12, Corning cci-3401) and cultured for 15-17 days. Culturemedium was changed every other day in both the apical and basolateral chamber. On the day of transport, the cells were equilibrated to ambient temperatures and the transepithelial electrical resistance (TEER) was measured across the cell monolayers. Subsequently, the cell layers were washed twice with HBSS and the TEER was measured again. The transport experiment was started by replacing the HBSS in the apical chamber with HBSS solutions of the four experimental compounds. Over a period of two hours samples of 100 μL where taken from the basolateral chamber at t=15, 30, 45, 60, 90 and 120 minutes. All samples were stored at −20° C. until analysis by means of HPLC-MS. All four compounds were tested in triplicate. After the transport study was stopped, the cell layers were washed twice with HBSS and the TEER was measured.

Cutibacterium acnes = assay: MIC and MBC determination; type: cell-based; details: Multiresistant clinical isolate
Method: (§2) MBC-value defines the antibiotic activities by the lowest concentration of the compound needed to kill at least 99.9% of the bacteria, also known as minimum bactericidal concentration (MBC) value.
(§3) The MIC for each compound for each bacteria strain was determined by the serial dilution method following the CLSI guidelines (CLSI Clinical and Laboratory Standards Institute: Performance Standards for Antimicrobial Susceptibility Testing: […] M100-S25. Wayne, Pa., USA; 2015.) All compounds were diluted in autoclaved H2O and stored at 4° C. […] Bacterial inoculums were prepared by inoculating 9 ml of H2O with bacterial colonies from agar plate (Oxoid, Roskilde Denmark) supplemented with bovine blood to a final yield a final density of 10^8 colony forming unit (CFU)/mL using a Sensititre™ Nephelometer (Thermo Scientific, Roskilde, Denmark). These inoculums were each in diluted 1:100 in Müller Hinton (MH) broth (Sigma, Copenhagen, Denmark). From the diluted inoculums 100 μl was transferred to each well in a 96-well plate and mixed with the compound to be MIC determined. The plate was incubated for 24 hours at 37° C. (without shaking). The MIC value was determined as the lowest concentration in which no bacterial growth could be visually detected. All MIC determinations were done in duplicates. […] Since all derivatives are new, no control strains (with reference MIC values) were available.

[2] = test system: Staphylococcus epidermidis; assay: MIC and MBC determination; type: cell-based; details: Multiresistant clinical isolate
Method: as §2, §3

Escherichia coli E24 = assay: MIC, serial dilution method (CLSI); also: values in mg/L; type: cell-based; details: E. coli E24, ESBL; duplicates a/b
Method: as §1

Escherichia coli E38 = assay: MIC, serial dilution method (CLSI); also: values in mg/L; type: cell-based; details: E. coli E38, ESBL; duplicates a/b
Method: as §1

Escherichia coli E4 = assay: MIC, serial dilution method (CLSI); also: values in mg/L; type: cell-based; details: E. coli E4, ESBL; duplicates a/b
Method: as §1

Escherichia coli E5 = assay: MIC, serial dilution method (CLSI); also: values in mg/L; type: cell-based; details: E. coli E5, ESBL; duplicates a/b
Method: as §1

Escherichia coli E6 = assay: MIC, serial dilution method (CLSI); also: values in mg/L; type: cell-based; details: E. coli E6, ESBL; duplicates a/b
Method: as §1

Escherichia coli ESBL10 = assay: MIC, serial dilution method (CLSI); also: values in mg/L; type: cell-based; details: E. coli ESBL10, Tetracycline resistant; duplicates a/b
Method: as §1

Escherichia coli ESBL19 = assay: MIC, serial dilution method (CLSI); also: values in mg/L; type: cell-based; details: E. coli ESBL19, Tetracycline resistant; duplicates a/b
Method: as §1

Escherichia coli ESBL1 = assay: MIC, serial dilution method (CLSI); also: values in mg/L; type: cell-based; details: E. coli ESBL1, Tetracycline resistant; duplicates a/b
Method: as §1

Escherichia coli ESBL28 = assay: MIC, serial dilution method (CLSI); also: values in mg/L; type: cell-based; details: E. coli ESBL28, Tetracycline resistant; duplicates a/b
Method: as §1

Escherichia coli ESBL37 = assay: MIC, serial dilution method (CLSI); also: values in mg/L; type: cell-based; details: E. coli ESBL37, Tetracycline resistant; duplicates a/b
Method: as §1

Escherichia coli ESBL46 = assay: MIC, serial dilution method (CLSI); also: values in mg/L; type: cell-based; details: E. coli ESBL46, Tetracycline resistant; duplicates a/b
Method: as §1

[3] = test system: Staphylococcus aureus MRSA 43484; assay: Murine superficial MRSA skin infection model, topical treatment; type: in vivo; details: 2%, topical twice daily for 3 days, day 4, Balb/C mice
Method: This experiment is conducted to assess the effect of topical treatment of the compounds against MRSA. Compound S43 was evaluated for efficacy against Staphylococcus aureus MRSA 43484 in an murine skin infection model.
Treatment was performed twice daily for 3 days and sampling of skin biopsies was performed the day after last treatment. Treatment with Fucidic acid was included as a positive control and treatment with vehicle was included as a negative control.
48 Balb/C female mice—18-22 g—Taconic, Denmark, Staphylococcus aureus MRSA43484, Test compound A at 1 and 2% formulations, Test compound B at 2% formulation, Fucidin, 0.9% saline (sterile, SSI), 0.9% saline/Triton-x (sterile, SSI), Sterile water (SSI), 5% Horse Blood Agar plates (SSI), MRSA Brilliance agar plates, Nurofen® Junior (20 mg/ml, Novartis), Zoletil mix/Torbugesic (SSI/QC-BIO), Dermal curette—Miltex 335710.
Approximately 1 hour before inoculation, mice were treated orally with 45 μl nurofen (20 mg ibuprofen/ml corresponding to approximately […]) as pain relief. The mice were anaesthetized with 0.15 ml s.c. of Zoletil mix. The fur was removed from a 2×3-cm area on the back of each mouse by use of an electric shaver. Next, a razor was used to remove all the hair and hereafter the outer most layer of the skin was scraped off with a dermal curette to obtain a 1 cm^2 superficial skin lesion. 10 μl inoculum containing approximately 10^7 CFU was spread on the lesion. After the applied inoculum had dried, the mouse was placed in the cage and kept in a warming cabinet until fully awake.
Topical treatment of was initiated the day after inoculation, Day 1. Mice were treated twice daily (9 a.m and 3 p.m.) for three days. A volume of 50 μl was spread on the inoculated skin area.
Colony counts in the skin lesions were determined on day 1 (start of treatment) and day 4 (the day after completed treatment). The mice were sacrificed day 1 and 4 according to Table 1. The affected skin area was removed by a pair of scissors and tweezers, and collected in a tube for Dispomixer with 1 ml saline. The skin sample was homogenized in a Dispomixer. Each sample was serial diluted in saline/Triton-x and 20-μl spots were applied on MRSA Brillince agar plates. All agar plates were incubated 20-48 hrs at 35° C.

Row | SMILES | MIC (S. aureus CC398) [µg/mL] | MIC (S. aureus USA300) [µg/mL] | MIC (E. faecalis) [µg/mL] | MIC (E. coli APEC O2) [µg/mL] | MIC [1] [µg/mL] | MIC (E. faecium) [µg/mL] | MIC (Bacillus cereus) [µg/mL] | MIC (Listeria monocytogenes) [µg/mL] | MIC (Salmonella enteritidis) [µg/mL] | MIC (Streptococcus equi) [µg/mL] | permeability across IPEC-J2 MDR1 cell monolayers (IPEC-J2 MDR1 cells) | further results
1 | CCCCCCCCCCCC[N+](C)(C)C(C)CN1c2ccccc2Sc2ccccc21.[Br-] (stereo not drawn) [Compound S18, N-(1-(10H-phenothiazin-10-yl)propan-2-yl)-N,N-dimethyldodecan-1-aminium bromide] | 0.25 | 0.5 | 0.5 | 64 | 0.25 | 0.25 | 0.25 | 0.25 | 64 | 1 |  | MBC (Cutibacterium acnes): 0.5 µg/mL; MIC (Cutibacterium acnes): 0.5 µg/mL; MBC [2]: 0.25 µg/mL; MIC [2]: 0.25 µg/mL
2 | CN(C)CCCN1c2ccccc2Sc2ccc(Cl)cc21.Cl [Compound S1, 3-(2-chloro-10H-phenothiazin-10-yl)-N,N-dimethylpropan-1-amine hydrochloride, reference compound] | 32 | 64 | 64 | 64 | 32 | 32 | 64 | 32 | 64 | 16 |  | MIC (Escherichia coli E24): 64/32; MIC (Escherichia coli E38): 64/32; MIC (Escherichia coli E4): 64/64; MIC (Escherichia coli E5): 32/32; MIC (Escherichia coli E6): 32/32; MIC (Escherichia coli ESBL10): 64/64; MIC (Escherichia coli ESBL19): 32/32; MIC (Escherichia coli ESBL1): 32/64; MIC (Escherichia coli ESBL28): 32/32; MIC (Escherichia coli ESBL37): 32/32; MIC (Escherichia coli ESBL46): 32/32
3 | CC[N+]1(C)CCCCC1CCN1c2ccccc2Sc2ccc(SC)cc21.[Br-] (stereo not drawn) [Compound S25, 1-ethyl-1-methyl-2-(2-(2-(methylthio)-10H-phenothiazin-10-yl)ethyl)piperidin-1-ium bromide] | 4 | 2 | 8 | 256 | 2 | 8 | 2 | 2 | 256 | 2 | low | 
4 | CC(=O)O[C@H]1C[C@@]2(C)[C@@H](C[C@@H](O)[C@H]3[C@@]4(C)CC[C@@H](O)[C@@H](C)[C@@H]4CC[C@@]32C)/C1=C(\CCC=C(C)C)C(=O)O [fucidic acid, reference compound] |  |  |  |  |  |  |  |  |  |  |  | reduction of the CFU levels compared to the vehicle control [3]: 1.5 logo

Now from value to compound, other results behind:

Row | MIC (S. aureus CC398) [µg/mL] | MIC (S. aureus USA300) [µg/mL] | MIC (E. faecalis) [µg/mL] | MIC (E. coli APEC O2) [µg/mL] | MIC [1] [µg/mL] | MIC (E. faecium) [µg/mL] | MIC (Bacillus cereus) [µg/mL] | MIC (Listeria monocytogenes) [µg/mL] | MIC (Salmonella enteritidis) [µg/mL] | MIC (Streptococcus equi) [µg/mL] | permeability across IPEC-J2 MDR1 cell monolayers (IPEC-J2 MDR1 cells) | SMILES | further results
5 | 2 | 2 | 4 | 64 | 4 | 2 | 2 | 2 | 64 | 2 | low | CCCCC[N+]1(C)CCCCC1CCN1c2ccccc2Sc2ccc(SC)cc21.[Br-] (stereo not drawn) [Compound S28, 1-methyl-2-(2-(2-(methylthio)-10H-phenothiazin-10-yl)ethyl)-1-pentylpiperidin-1-ium bromide] | 
6 | 2 | 2 | 4 | 128 | 2 | 4 | 4 | 2 | 128 | 2 | low | CSc1ccc2c(c1)N(CCC1CCCC[N+]1(C)CCC(C)C)c1ccccc1S2.[Br-] (stereo not drawn) [Compound S27, 1-isopentyl-1-methyl-2-(2-(2-(methylthio)-10H-phenothiazin-10-yl)ethyl)piperidin-1-ium bromide] | 
